Experimental data as given in patent US9150592B2, “Heterocyclic nuclear hormone receptor modulators” (AbbVie Inc., priority 2012, dated 2015).

Key:
[1] = target: T1, Glucocorticoid Receptor (GR) (Homo sapiens, UniProt P04150); assay: GR Fluorescence Polarization Assay (PolarScreen Glucocorticoid Receptor Competitor Assay, Red); conditions: IC50 class ranges, read-out: GR binding
T1 construct: purchased Invitrogen P2893
T1 sequence (P04150 1-777): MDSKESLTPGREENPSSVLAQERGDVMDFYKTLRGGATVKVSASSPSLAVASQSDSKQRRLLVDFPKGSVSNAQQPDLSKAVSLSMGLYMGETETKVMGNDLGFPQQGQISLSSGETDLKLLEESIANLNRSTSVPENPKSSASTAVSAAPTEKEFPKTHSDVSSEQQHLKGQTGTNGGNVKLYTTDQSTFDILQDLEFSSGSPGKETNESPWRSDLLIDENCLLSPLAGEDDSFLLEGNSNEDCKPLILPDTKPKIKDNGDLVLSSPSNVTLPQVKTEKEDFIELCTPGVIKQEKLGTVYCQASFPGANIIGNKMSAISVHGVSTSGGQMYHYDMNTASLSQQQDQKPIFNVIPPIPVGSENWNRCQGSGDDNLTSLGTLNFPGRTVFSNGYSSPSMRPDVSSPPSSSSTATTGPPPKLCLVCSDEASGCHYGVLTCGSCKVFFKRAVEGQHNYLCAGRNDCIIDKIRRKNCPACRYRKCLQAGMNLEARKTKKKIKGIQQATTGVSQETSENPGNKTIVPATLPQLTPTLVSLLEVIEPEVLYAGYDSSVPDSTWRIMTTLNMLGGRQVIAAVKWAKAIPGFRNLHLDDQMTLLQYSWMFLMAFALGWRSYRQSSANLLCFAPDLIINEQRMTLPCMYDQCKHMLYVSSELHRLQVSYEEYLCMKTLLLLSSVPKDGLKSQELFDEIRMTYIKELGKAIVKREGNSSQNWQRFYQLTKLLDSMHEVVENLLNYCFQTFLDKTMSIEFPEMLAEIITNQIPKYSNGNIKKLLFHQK
Procedure, shortened: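 Competitive fluorescence-polarization assay using a red fluorescent glucocorticoid tracer with human GR in kit buffer. Compounds serially diluted 1:4 in DMSO, incubated with tracer and GR overnight at 4° C, then polarization read.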

[2] = tested on: IL-6 in A549 cells stimulated with IL-1β; assay: A549 Cell Assay to Measure Inflammation Markers (inhibition of IL-1β-induced IL-6); assay type: cell-based; conditions: intrinsic activity, Emax class ranges; for Emax: Homo sapiens, A549, A549 Cell Assay to Measure Inflammation Markers
Procedure, shortened: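 Compound pre-incubated with A549 cells 1 h at 37 °C, then stimulated with IL-1β (1 ng/mL final, 0.1% DMSO). Supernatant IL-6 quantified by MSD immunoassay after a further incubation. IC50 and Emax derived.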

Row | Structure (SMILES) | IC50 [1] | Emax [2] | A549 Emax ([2]; A549 Cell Assay to Measure Inflammation Markers)
1 | Cc1cc(C(=O)Nc2cccnc2C)ccc1[C@@H]1SC[C@H](C)Nc2c1c(-c1ccncn1)nn2C (single isomer, unassigned) [M.58, 4-(1,7-dimethyl-3-(pyrimidin-4-yl)-4,6,7,8-tetrahydro-1H-pyrazolo[3,4-e][1,4]thiazepin-4-yl)-3-methyl-N-(2-methylpyridin-3-yl)benzamide] | < 0.1 µM | > 70% | 
2 | Cc1cc(C#N)ccc1[C@H]1S[C@@H](C)CNc2c1c(C1CC1)nn2C (racemic) [G.3] | < 0.1 µM | < 50% | 
3 | Cc1cc(Cl)ccc1[C@H]1SC(C)(C)CNc2c1c(C1CC1)nn2C | < 0.1 µM | > 60% | 
4 | Cn1nc(-c2ccc(Cl)cc2)c2c1NCCSC2c1ccc(Cl)cc1Cl (centres unmarked) [D.82] | 0.1 to 1 µM | < 50% | 
5 | Cn1nc(-c2ccccn2)c2c1NCCSC2c1ccc(Br)cc1 (centres unmarked) [D.25, 4-(4-bromophenyl)-1-methyl-3-(2-pyridyl)-4,6,7,8-tetrahydropyrazolo[3,4-e][1,4]thiazepine] | 0.1 to 1 µM | < 50% | 
6 | Cc1nn(C)c2c1C(c1ccc(Br)cc1Cl)SC(C)(C)CN2 (centres unmarked) [D.60] | < 0.1 µM | > 50% | 
7 | Cc1cc(Cl)ccc1[C@@H]1S[C@@H](CCO)CNc2c1c(C)nn2C (single isomer, unassigned) [M.16, 2-[4-(4-chloro-2-methyl-phenyl)-1,3-dimethyl-4,6,7,8-tetrahydro-1H-pyrazolo[3,4-e][1,4]thiazepin-6-yl]-ethanol] | 1 to 10 µM | < 50% | 
8 | Cc1cc(Br)ccc1[C@H]1SC[C@@H](C(F)(F)F)Nc2c1c(-c1ccccn1)nn2C (racemic) | < 0.1 µM | < 50% | 
9 | Cc1c(Br)cccc1C1SC(C)(C)CNc2c1c(C1CC1)nn2C (centres unmarked) [D.69] | 0.1 to 1 µM | < 50% | 
10 | Cn1nc(-c2ccc(F)cc2)c2c1NCCSC2c1ccc(Cl)cc1Cl (centres unmarked) [D.94] | < 0.1 µM | < 50% | 
11 | CCn1nc(-c2ccccn2)c2c1N[C@@H](C)CS[C@H]2c1ccc(C#CC(C)(C)O)cc1C (single isomer, unassigned) [M.32, 4-(4-(1-ethyl-7-methyl-3-(pyridin-2-yl)-4,6,7,8-tetrahydro-1H-pyrazolo[3,4-e][1,4]thiazepin-4-yl)-3-methylphenyl)-2-methylbut-3-yn-2-ol] | < 0.1 µM | > 70% | 
12 | CC(=O)N1CCC(C2SCCNc3c2c(-c2ccccn2)nn3C)CC1 (centres unmarked) | > 10 µM | < 50% | 
13 | Cc1nn(CC(O)C(F)(F)F)c2c1C(c1ccc(Cl)cc1Cl)SC(C)(C)CN2 (single isomer, unassigned) [M.5, 3-(4-(2,4-dichlorophenyl)-3,6,6-trimethyl-4,6,7,8-tetrahydro-1H-pyrazolo[3,4-e][1,4]thiazepin-1-yl)-1,1,1-trifluoropropan-2-ol] | 1 to 10 µM | < 50% | 
14 | Cc1nn(C)c2c1C(c1ccc(Cl)cc1Cl)SC1(CCC1)CN2 (centres unmarked) [D.66] | < 0.1 µM | < 50% | 
15 | CCn1nc(-c2ccccn2)c2c1NCCCC2c1ccc(C(=O)Nc2cccnc2C)cc1C (centres unmarked) [F.7] | < 0.1 µM | > 70% | 
16 | Cc1cc(Cl)ccc1[C@H]1SC[C@H](C)Nc2c1c(-c1ccccn1)nn2C | 1 to 10 µM | < 50% | 
17 | Cc1cc(Cl)ccc1C1SCC(C)Nc2c1c(-c1ccccn1)nn2C (single isomer, unassigned) | 1 to 10 µM | < 50% | 
18 | Cn1nc(-c2ccccn2)c2c1NCCSC2c1ccc(Cl)cc1F (centres unmarked) [D.103] | < 0.1 µM | < 50% | 
19 | Cc1cc(Cl)ccc1C1SCCNc2c1c(-c1ccccn1)nn2C (single isomer, unassigned) | 0.1 to 1 µM | < 50% | 
20 | Cc1cc(C(=O)Nc2cccnc2C)ccc1[C@H]1SCCNc2c1c(-c1ccccn1)nn2C | 0.1 to 1 µM |  | B (a compound with Emax>60%)
21 | Cn1nc(-c2ccccn2)c2c1NCCSC2Cc1ccccc1 (centres unmarked) [D.36] | > 10 µM | < 50% | 
22 | CCn1nc(-c2ccccn2)c2c1NCCSC2c1ccc(Br)cc1C (centres unmarked) [D.30, 4-(4-bromo-2-methyl-phenyl)-1-ethyl-3-(2-pyridyl)-4,6,7,8-tetrahydropyrazolo[3,4-e][1,4]thiazepine] | < 0.1 µM | > 70% | 
23 | CCn1nc(-c2ccccn2)c2c1NCCSC2c1ccc(C(=O)Nc2nncs2)cc1C (centres unmarked) [S.3] | < 0.1 µM | < 50% | 

Row | Structure (SMILES) | IC50 [1] | Emax [2] | A549 Emax ([2]; A549 Cell Assay to Measure Inflammation Markers)
24 | Cc1cc(C(=O)Nc2cccnc2C)ccc1C1SCC(C)Nc2c1c(-c1ccccn1)nn2C (centres unmarked) [H.6] | < 0.1 µM | > 70% | 
25 | Cc1nn(C)c2c1C(c1ccc(Cl)cc1Cl)SC1(CCOCC1)CN2 (centres unmarked) [D.67] | < 0.1 µM | < 50% | 
26 | Cn1nc(C2CC2)c2c1NCC(C)(C)SC2c1ccc(Cl)cc1F (single isomer, unassigned) [M.3, 4-(4-chloro-2-fluorophenyl)-3-cyclopropyl-1,6,6-trimethyl-4,6,7,8-tetrahydro-1H-pyrazolo[3,4-e][1,4]thiazepine] | 1 to 10 µM | < 50% | 
27 | CCn1nc(-c2ccccn2)c2c1NCCSC2c1ccc(C(=O)Nc2nnc[nH]2)cc1C (centres unmarked) [S.5] | < 0.1 µM | > 70% | 
28 | Cc1cc(Cl)ccc1C1SCC(C(C)C)Nc2c1c(-c1ccccn1)nn2C (centres unmarked) [K.3] | < 0.1 µM | < 50% | 
29 | CN(C)c1ccc(-c2nn(C)c3c2C(c2ccc(Cl)cc2Cl)SCCN3)cc1 (centres unmarked) [D.31] | 1 to 10 µM | < 50% | 
30 | Cc1cc(Br)ccc1[C@H]1SC[C@H](CC#N)Nc2c1c(-c1ccccn1)nn2C (racemic) | < 0.1 µM | > 50% | 
31 | Cc1cc(C(N)=O)ccc1C1SC(C)(C)CNc2c1c(C)nn2C (centres unmarked) [I.4] | 1 to 10 µM | < 50% | 
32 | COc1ccc(C2SCCNc3c2c(-c2ccccn2)nn3C)c(C)c1 (centres unmarked) [D.10] | < 0.1 µM | < 50% | 
33 | CC1CSC(c2ccc(Br)cc2C(F)(F)F)c2c(-c3ccccn3)nn(C)c2N1 (centres unmarked) [K.11] | < 0.1 µM | < 50% | 
34 | Cc1cc(Cl)ccc1C1SCCNc2c1c([C@@H]1CCCN1)nn2C (mixture of isomers) | 1 to 10 µM | < 50% | 
35 | Cc1sc(Br)cc1C1SCCNc2c1c(-c1ccccn1)nn2C (centres unmarked) [D.34, 4-(5-bromo-2-methyl-3-thienyl)-1-methyl-3-(2-pyridyl)-4,6,7,8-tetrahydropyrazolo[3,4-e][1,4]thiazepine] | < 0.1 µM | < 50% | 
36 | Cc1cc(Br)ccc1C1SC(C)(C)CNc2c1c(C)nn2C (centres unmarked) [D.58, 4-(4-bromo-2-methyl-phenyl)-1,3,6,6-tetramethyl-7,8-dihydro-4H-pyrazolo[3,4-e][1,4]thiazepine] | < 0.1 µM | > 50% | 
37 | Cc1cc(Cl)ccc1C1SC(C)(C)CNc2c1c(C)nn2C1CCCC1 (centres unmarked) [D.70] | 0.1 to 1 µM | < 50% | 
38 | Cc1cc(Br)ccc1[C@@H]1SC[C@@H](CO)Nc2c1c(-c1ccccn1)nn2C (racemic) [K.10, rac-((4R,7S)-4-(4-bromo-2-methylphenyl)-1-methyl-3-(pyridin-2-yl)-4,6,7,8-tetrahydro-1H-pyrazolo[3,4-e][1,4]thiazepin-7-yl)methanol] | < 0.1 µM | > 60% | 
39 | Cc1cc(C#N)ccc1C1SCCNc2c1c(-c1ccccn1)nn2C (centres unmarked) [G.8, 3-methyl-4-(1-methyl-3-(pyridin-2-yl)-4,6,7,8-tetrahydro-1H-pyrazolo[3,4-e][1,4]thiazepin-4-yl)benzonitrile] | < 0.1 µM | > 60% | 
40 | CC(C)c1nn(C)c2c1C(c1ccc(Cl)cc1Cl)SCCN2 (centres unmarked) [D.84] | 0.1 to 1 µM | < 50% | 
41 | C=Cc1cc(Cl)ccc1C1SCCNc2c1c(-c1ccccn1)nn2C (centres unmarked) | < 0.1 µM | > 60% | 
42 | Cc1ccc(Br)cc1C1SC(C)(C)C=Nc2c1c(C1CC1)nn2C (centres unmarked) [D.54] | 1 to 10 µM | < 50% | 
43 | Cn1nc(-c2ccccn2)c2c1NCCSC2c1ccc(Cl)cc1 (centres unmarked) [D.23] | 0.1 to 1 µM | < 50% | 
44 | Cc1cc(C#CCCO)ccc1[C@@H]1SC[C@H](C)Nc2c1c(-c1ccccn1)nn2C (single isomer, unassigned) [M.54, 4-(4-(1,7-dimethyl-3-(pyridin-2-yl)-4,6,7,8-tetrahydro-1H-pyrazolo[3,4-e][1,4]thiazepin-4-yl)-3-methylphenyl)but-3-yn-1-ol] | < 0.1 µM | < 50% | 
45 | Cc1cc(C#N)ccc1C1SC(C)(C)CNc2c1c(C)nn2C (centres unmarked) [G.6] | 0.1 to 1 µM | < 50% | 
46 | CCn1nc(-c2ccccn2)c2c1NCCSC2c1ccc(C(=O)Nc2cccnc2C)cc1C(F)(F)F (single isomer, unassigned) [M.68, 4-(1-ethyl-3-(pyridin-2-yl)-4,6,7,8-tetrahydro-1H-pyrazolo[3,4-e][1,4]thiazepin-4-yl)-N-(2-methylpyridin-3-yl)-3-(trifluoromethyl)benzamide] | 1 to 10 µM | > 70% | 
